The numbers were not newly measured in PMC3124134 (Bioorganic & medicinal chemistry, 2010), which cites them from elsewhere.

Structures are written as SMILES.

The target of one series is ODCase. The note with it: read-out: inhibition constant (Ki); competitive inhibition of ODCase.
Another series addresses Sc ODCase. As to conditions: S. cerevisiae ODCase; in words.

By Ki is commonly meant a dissociation constant, usually derived from enzyme kinetics or from competition with a known ligand. For the molecule `COC(=O)C1=C(C)NC(C)=C(C(=O)OC)C1c1ccccc1[N+](=O)[O-]` [nifedipine], the Ki at ODCase is 105 µM.

Regarding `NC(=O)c1[nH]nc([C@@H]2O[C@H](COP(=O)(O)O)[C@@H](O)[C@H]2O)c1O` [compound 8, 4-Hydroxy-5-(5-O-monophosphoryl-β-D-ribofuranos-1-yl)-1H-pyrazole-3-carboxamide], the inhibition constants entry on Sc ODCase is “low nanomolar range”.
